Reference: patent US11311553B1, “Methods of treating 4-repeat tauopathies” (priority 2020, dated 2022)

Key:
PSP = details: literature clinical trials in PSP patients; cited from earlier work
[1] = 1-hydroxy (M3) metabolite formed in vivo; cited from earlier work
[2] = system: subjects with probable or possible PSP; test: Fasudil treatment of subjects with probable or possible PSP, assessed at baseline, six months and one year; type: in vivo, human; details: fasudil 180 mg/day (60 mg tid)

Molecule	clinical effect / benefit in PSP (PSP)	other results
CC[C@H](C)[C@H](NC(=O)[C@H](CO)NC(=O)[C@@H](NC(=O)[C@@H]1CCCN1C(=O)[C@H](C)NC(=O)[C@@H](N)CC(N)=O)C(C)C)C(=O)N1CCC[C@H]1C(=O)N[C@@H](CCC(N)=O)C(=O)O [Davunetide]	not shown not to be effective	–
O=S(=O)(c1cccc2c(O)nccc12)N1CCCNCC1 [M3, hydroxyfasudil]	–	half-life [1]: about 8 hours
O=C(Oc1ccccc1C(=O)O)c1ccccc1O [Salsalate]	failed	–
C=CC1O[C@H]2C[C@H]3OC[C@@]3(OC(C)=O)[C@H]3[C@H](OC(=O)c4ccccc4)[C@]4(O)C[C@H](OC(=O)[C@H](O)[C@H](CC(C)C)NC(=O)OC(C)(C)C)C(C)=C([C@H](OC(C)=O)[C@H](O1)[C@]23C)C4(C)C (some centres unmarked) [TPI 287]	failed to show any effect	–
COC1=C(OC)C(=O)C(C/C=C(\C)CC/C=C(\C)CC/C=C(\C)CC/C=C(\C)CC/C=C(\C)CC/C=C(\C)CC/C=C(\C)CC/C=C(\C)CC/C=C(\C)CCC=C(C)C)=C(C)C1=O [coenzyme Q10]	failed to provide benefit	–
Cl.O=S(=O)(c1cccc2cnccc12)N1CCCNCC1 [fasudil, Hexahydro-1-(5-isoquinolinesulfonyl)-1H-1,4-diazepine monohydrochloride hemihydrate]	–	Oculomotor parameters [2]: improve; sleep parameters [2]: improve
Nc1nc2ccc(OC(F)(F)F)cc2s1 [riluzole]	failed to demonstrate effects	–
O=c1sn(-c2cccc3ccccc23)c(=O)n1Cc1ccccc1 [tideglusib]	failed to show benefit	–
Gosuranemab: a humanized monoclonal antibody that targets N-terminal tau (antibody, chains of the INN, looked up, V domains shown) VH: EVHLVESGGALVKPGGSLRLSCAASGFSFSKYGMSWVRQAPGKGLEWVATISSSGSRTYYPDSVKGRFTISRDNAKNTLYLQMNSLRAEDTAMYYCSISWDGAMDYWGQGTTVTVSS VL: DVVMTQSPLSLPVTLGQPASISCKSSQSIVHSNGNTYLEWYLQKPGQSPQLLVYKVSNRFSGVPDRFSGSGSGTDFTLKISRVEAEDVGTYYCFQGSLVPWAFGGGTKVEIK	no effect	–
ABBV-8E12: humanized anti-tau monoclonal antibody (antibody, chains of the INN, looked up, V domains shown) VH: EVKVVESGGGLVQPGGSMKLSCVVSGFTFSNYWVNWVRQAPGKGLEWVAQIRLKSDNYATHYEESVKGRFTISRDDSKSSVYLQMNNLRAEDSGIYYCTNWEDYWGQGTTVTVSS VL: DIVLTQSPDSLAVSLGERATISCRASQSVSTSRYSYIHWYQQKPGQPPKLLIKYASNLESGVPSRFSGSGSGTDFTLNIHPLEPEDFATYYCHHSWEIPLTFGQGTKLEIK	failed to demonstrate an effect	–
